Measured values as given in patent US20060069132A1, “Azolecarboxamide herbicides” (priority 2004, published 2006).

Key:
[1] = system: barnyardgrass; test: Test A pre-/postemergence herbicide test; type: in vivo, Echinochloa crus-galli
Outline: (§1)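 Pre: seeded sandy loam, directed soil spray, compound in non-phytotoxic solvent + surfactant. Post: 1–2-leaf plants (2–10 cm), sprayed to runoff. Greenhouse ~10 d; visual injury vs untreated, 0–100 scale.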

[2] = system: large crabgrass; test: Test A pre-/postemergence herbicide test; type: in vivo, Digitaria sanguinalis
Outline: as §1

[3] = system: redroot pigweed; test: Test A pre-/postemergence herbicide test; type: in vivo, Amaranthus retroflexus
Outline: as §1

[4] = system: bermudagrass; test: Test C pre-/postemergence herbicide test; type: in vivo, Cynodon dactylon; settings: for Bermudagrass plant response rating: 500 g ai/ha
Outline: (§2)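 Visual injury scores run from 0 (no effect) to 100 (complete control), assessed relative to untreated controls 12 to 14 days after treatment in the greenhouse. Chemicals were formulated in a non-phytotoxic solvent mixture with surfactant and applied to soil after planting or to emerged plants at the 1- to 4-leaf stage.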

[5] = system: woolly cupgrass; test: Test C pre-/postemergence herbicide test; type: in vivo, Eriochloa villosa
Outline: as §2

[6] = system: giant foxtail; test: Test C pre-/postemergence herbicide test; type: in vivo, Setaria faberi
Outline: as §2

[7] = system: goosegrass; test: Test C pre-/postemergence herbicide test; type: in vivo, Eleusine indica
Outline: as §2

[8] = system: common ragweed; test: Test C pre-/postemergence herbicide test; type: in vivo, Ambrosia elatior; set-up: key to Plant response rating, Ragweed: 0 = no effect, 100 = complete control; settings: for Ragweed plant response rating: Preemergence
Outline: as §2

[9] = system: common (oilseed) sunflower; test: Test C pre-/postemergence herbicide test; type: in vivo, Helianthus annuus; settings: for Plant response rating, Sunflower / Plant response rating (0 = no effect, 100 = complete control), Sunflower: preemergence; for Sunflower plant response rating: Preemergence, scale 0 to 100, 0 no effect, 100 complete control
Outline: as §2

[10] = Postemergence, 500 g ai/ha, 0 to 100 scale, 0 no effect, 100 complete control
[11] = Postemergence, 2000 g ai/ha, 0 to 100 scale, 0 no effect, 100 complete control
[12] = Preemergence, 2000 g ai/ha, visual rating, 0 to 100 scale (0 no effect, 100 complete control)
[13] = preemergence, 500 g ai/ha, visual injury, 0 to 100 scale (0 no effect, 100 complete control)
[14] = 125 g ai/ha, scale 0 (no effect) to 100 (complete control), visual, 12 to 14 days, preemergence
[15] = 250 g ai/ha, scale 0-100, preemergence
[16] = Postemergence, 250 g ai/ha, scale 0 to 100, 0 no effect, 100 complete control
[17] = Preemergence, scale 0 to 100, 0 no effect, 100 complete control
[18] = postemergence, 125 g ai/ha, scale 0 to 100
[19] = postemergence, 62 g ai/ha, scale 0 to 100
[20] = 62 g ai/ha, preemergence, scale 0 to 100
[21] = 500 g ai/ha, scale 0 to 100 (0 no effect, 100 complete control), visual, 12 to 14 days, preemergence
[22] = Postemergence, 500 g ai/ha, scale 0 to 100
[23] = 125 g ai/ha, scale 0 (no effect) to 100 (complete control), visual, 12 to 14 days
[24] = Preemergence, 500 g ai/ha, visual rating, 0 to 100 scale (0 no effect, 100 complete control)
[25] = 250 g ai/ha, scale 0 to 100 (0 no effect, 100 complete control), visual, 12 to 14 days, preemergence
[26] = Preemergence, 500 g ai/ha, scale 0 to 100, 0 no effect, 100 complete control
[27] = 500 g ai/ha, scale 0 to 100, 0 no effect, 100 complete control
[28] = Preemergence, 2000 g ai/ha, 0 to 100 scale, 0 no effect, 100 complete control

Compound: CCc1nc(C(C)(C)C)sc1C(=O)Nc1cccc(C(=O)NCC2CC2)c1 [Compound 212]
- Barnyardgrass plant response rating [1, 10]: 50
- Plant response rating, Barnyardgrass [1, 11]: 90
- Barnyardgrass plant response rating [1, 12]: 85
- Barnyardgrass plant response rating [1, 13]: 80
- Crabgrass, Large plant response rating [2, 10]: 45
- Plant response rating, Crabgrass, Large [2, 11]: 60
- Crabgrass, Large plant response rating [2, 12]: 95
- Crabgrass, Large plant response rating [2, 13]: 90
- Pigweed plant response rating [3, 10]: 75
- Plant response rating, Pigweed [3, 11]: 90
- Pigweed plant response rating [3, 12]: 100
- Pigweed plant response rating [3, 13]: 100
- Plant response rating, Bermudagrass ([4]; 62 g ai/ha, preemergence, scale 0 to 100, 0 no effect, 100 complete control): 60
- Plant response rating, Bermudagrass [4, 14]: 75
- Plant response rating, Bermudagrass [4, 15]: 80
- Bermudagrass plant response rating ([4]; Postemergence, scale 0 to 100): 50
- Plant response rating, Bermudagrass [4, 16]: 10
- Bermudagrass plant response rating [4, 17]: 100
- Plant response rating, Bermudagrass [4, 18]: 0
- Plant response rating, Bermudagrass [4, 19]: 0
- Plant response rating, Cupgrass, Woolly [5, 20]: 0
- Plant response rating, Cupgrass, Woolly [5, 14]: 0
- Plant response rating, Cupgrass, Woolly [5, 15]: 20
- Plant response rating, Cupgrass, Woolly [5, 21]: 30
- Cupgrass, Woolly plant response rating [5, 22]: 40
- Plant response rating, Cupgrass, Woolly [5, 16]: 30
- Plant response rating, Cupgrass, Woolly [5, 18]: 5
- Plant response rating, Cupgrass, Woolly [5, 19]: 5
- Plant response rating, Foxtail, Giant [6, 20]: 0
- Plant response rating, Foxtail, Giant [6, 14]: 20
- Plant response rating, Foxtail, Giant [6, 15]: 20
- Plant response rating, Foxtail, Giant [6, 21]: 95
- Foxtail, Giant plant response rating [6, 22]: 60
- Plant response rating, Foxtail, Giant [6, 16]: 50
- Plant response rating, Foxtail, Giant [6, 18]: 20
- Plant response rating, Foxtail, Giant [6, 19]: 10
- Plant response rating, Goosegrass [7, 20]: 10
- Plant response rating, Goosegrass [7, 14]: 60
- Plant response rating, Goosegrass [7, 15]: 95
- Plant response rating, Goosegrass [7, 21]: 100
- Goosegrass plant response rating [7, 22]: 30
- Plant response rating, Goosegrass [7, 16]: 25
- Plant response rating, Goosegrass [7, 18]: 10
- Plant response rating, Goosegrass [7, 19]: 10
- Plant response rating, Ragweed [8, 20]: 0
- Plant response rating, Ragweed [8, 14]: 0
- Plant response rating, Ragweed [8, 15]: 30
- Plant response rating, Ragweed [8, 21]: 95
- Plant response rating, Ragweed [8, 16]: 80
- Plant response rating, Ragweed [8, 18]: 60
- Plant response rating, Ragweed [8, 19]: 60
- Plant response rating, Sunflower ([9]; 62 g ai/ha, scale 0 to 100): 0
- Plant response rating, Sunflower [9, 23]: 0
- Plant response rating, Sunflower ([9]; 250 g ai/ha, scale 0-100): 0
- Plant response rating, Sunflower ([9]; 500 g ai/ha, scale 0 to 100 (0 no effect, 100 complete control), visual, 12 to 14 days): 0

Compound: CCCCOc1cccc(NC(=O)c2cc(C(C)(C)C)nn2CC)c1 [Compound 137]
- Barnyardgrass plant response rating [1, 10]: 20
- Plant response rating, Barnyardgrass [1, 11]: 25
- Barnyardgrass plant response rating [1, 24]: 30
- Barnyardgrass plant response rating [1, 12]: 60
- Crabgrass, Large plant response rating [2, 10]: 30
- Plant response rating, Crabgrass, Large [2, 11]: 60
- Crabgrass, Large plant response rating [2, 24]: 55
- Crabgrass, Large plant response rating [2, 12]: 90
- Pigweed plant response rating [3, 10]: 90
- Plant response rating, Pigweed [3, 11]: 100
- Pigweed plant response rating [3, 12]: 90
- Pigweed plant response rating [3, 13]: 60
- Plant response rating (0 = no effect, 100 = complete control), Bermudagrass ([4]; 62 g ai/ha, preemergence): 50
- Plant response rating, Bermudagrass [4, 14]: 100
- Plant response rating, Bermudagrass [4, 25]: 100
- Bermudagrass plant response rating [4, 17]: 100
- Plant response rating (0 = no effect, 100 = complete control), Cupgrass, Woolly ([5]; 62 g ai/ha, preemergence): 0
- Plant response rating, Cupgrass, Woolly [5, 14]: 0
- Plant response rating, Cupgrass, Woolly [5, 25]: 5
- Cupgrass, Woolly plant response rating [5, 26]: 40
- Plant response rating (0 = no effect, 100 = complete control), Foxtail, Giant ([6]; 62 g ai/ha, preemergence): 10
- Plant response rating, Foxtail, Giant [6, 14]: 50
- Plant response rating, Foxtail, Giant [6, 25]: 60
- Foxtail, Giant plant response rating [6, 26]: 85
- Plant response rating (0 = no effect, 100 = complete control), Goosegrass ([7]; 62 g ai/ha, preemergence): 40
- Plant response rating, Goosegrass [7, 14]: 85
- Goosegrass plant response rating [7, 26]: 100
- Plant response rating (0 = no effect, 100 = complete control), Ragweed ([8]; 62 g ai/ha, preemergence): 0
- Plant response rating, Ragweed [8, 14]: 0
- Ragweed plant response rating [8, 27]: 100
- Plant response rating (0 = no effect, 100 = complete control), Sunflower ([9]; 62 g ai/ha): 0
- Plant response rating, Sunflower [9, 23]: 0
- Sunflower plant response rating ([9]; 500 g ai/ha): 0

Compound: CCn1nc(C(C)(C)C)cc1C(=O)Nc1cccc(C(=O)NCC(C)C)c1 [Compound 61]
- Plant response rating, Barnyardgrass [1, 10]: 35
- Plant response rating, Barnyardgrass [1, 11]: 90
- Barnyardgrass plant response rating [1, 24]: 40
- Barnyardgrass plant response rating [1, 28]: 75
- Plant response rating, Crabgrass, Large [2, 10]: 30
- Plant response rating, Crabgrass, Large [2, 11]: 45
- Crabgrass, Large plant response rating [2, 24]: 75
- Crabgrass, Large plant response rating [2, 28]: 90
- Plant response rating, Pigweed [3, 10]: 85
- Plant response rating, Pigweed [3, 11]: 95
- Pigweed plant response rating [3, 24]: 95
- Pigweed plant response rating [3, 28]: 65
- Plant response rating (0 = no effect, 100 = complete control), Bermudagrass ([4]; 62 g ai/ha, preemergence): 10
- Plant response rating, Bermudagrass [4, 14]: 70
- Plant response rating, Bermudagrass [4, 25]: 80
- Bermudagrass plant response rating [4, 17]: 95
- Plant response rating (0 = no effect, 100 = complete control), Cupgrass, Woolly ([5]; 62 g ai/ha, preemergence): 0
- Plant response rating, Cupgrass, Woolly [5, 14]: 0
- Plant response rating, Cupgrass, Woolly [5, 25]: 0
- Cupgrass, Woolly plant response rating [5, 26]: 10
- Plant response rating (0 = no effect, 100 = complete control), Foxtail, Giant ([6]; 62 g ai/ha, preemergence): 0
- Plant response rating, Foxtail, Giant [6, 14]: 20
- Plant response rating, Foxtail, Giant [6, 25]: 40
- Foxtail, Giant plant response rating [6, 26]: 60
- Plant response rating (0 = no effect, 100 = complete control), Goosegrass ([7]; 62 g ai/ha, preemergence): 0
- Plant response rating, Goosegrass [7, 14]: 40
- Plant response rating, Goosegrass [7, 25]: 70
- Goosegrass plant response rating [7, 26]: 95
- Plant response rating (0 = no effect, 100 = complete control), Ragweed ([8]; 62 g ai/ha, preemergence): 0
- Plant response rating, Ragweed [8, 14]: 0
- Plant response rating, Ragweed [8, 25]: 80
- Ragweed plant response rating [8, 27]: 80
- Plant response rating (0 = no effect, 100 = complete control), Sunflower ([9]; 62 g ai/ha): 0
- Plant response rating, Sunflower [9, 23]: 0
- Plant response rating, Sunflower ([9]; 250 g ai/ha, scale 0 to 100 (0 no effect, 100 complete control), visual, 12 to 14 days): 0
- Sunflower plant response rating ([9]; 500 g ai/ha): 0
